For one assay, the system named is MIAPACA2 cells. In words: Mito Stress Test (oxygen consumption rate, Seahorse). The note with it: HCT13 25 nM + Cu(II) 20 μM, 24 h. Type of assay: cell-based, human. As for the experimental part:
FIG. 3A: Mito Stress Test of MIAPACA2 PDAC cells treated with HCT13 (25 nM)+Cu(II) (20 μM) for 24h. FIG. 3B: electron flow assay in isolated mitochondria treated with HCT-13 (100 nM)+Cu(II) (20 μM) for 1h. FIG. 3C: viability of 143 BTK parental (wild type, WT) and ρ0 cells after 48h of the indicated HCT13 concentration+Cu(II) (20 μM) treatment, assessed with Trypan Blue Staining. FIG. 3D: 48h cell cycle histogram and plots of S-phase arrest plots in 143 BTK WT and 143 BTK ρ0 cells at 24, 48 and 72h following treatment with indicated concentrations of HCT13+Cu(II)(20 μM). (mean±SD, n=2, one-way ANOVA corrected for multiple comparisons by Bonferroni adjustment, * P<0.05; ** P<0.01; *** P<0.001). […]
Mito Stress Test and Electron Flow Assay: All oxygen consumption rate (OCR) was measured using a XF24 Analyzer (Agilent) and normalized per μg protein. […] OCR was measured before (total respiration) and after the sequential injection of 1 μM oligomycin (complex V inhibitor), 0.75 μM FCCP (uncoupler), and 1 μM of rotenone and myxothiazol (complex I and III inhibitors, respectively), as described previously (1). Mitochondrial respiration was calculated by subtracting the non-mitochondrial respiration left after rotenone and myxothiazol injection. […] OCR was measured before and after the sequential injections described in the previous paragraph. […]

Assay [1] concerns p185BCR-ABL Arf−/− pre-B-ALL cells. In words: In vivo efficacy, systemic p185 pre-B ALL model. The note with it: 1 mg/kg q.d. 8 days; fourteen days after treatment initiation. Details: species or system mouse. From the text: FIG. 9A: dose and schedule for the efficacy study in p185 pre-B-ALL mice. FIGS. 9B-9D: bioluminescence images and quantification of whole body radiance of mice treated with HCT-16 (n=5) or vehicle control (n=10). FIG. 9E: dose and schedule for the efficacy study in MV4-11 AML bearing mice. FIGS. 9F-9H: bioluminescence images and quantification of whole body radiance of mice treated with HCT-16 (n=5) or vehicle control (n=5). (mean±SD, n=2, student's paired t-test, * P<0.05; ** P<0.01; *** P<0.001). q.d.=once/day. For purposes of the disclosure, Cu(HCT-13) is the same as compound HCT-16 (i.e., copper complexed with HCT-13).
The in vivo efficacy and tolerability of HCT-13 was investigated. […] Both p185 and MV4-11 cell lines were engineered to express luciferase to monitor the systemic leukemic burden by bioluminescence imaging (BLI). (Boulos et al, Blood 2011, 117(13):3585-3595; Rahmani et al, Cancer Res. 2018, 78(11):3075-3086). To bypass the need for systemic copper supplementation, a one-to-one complex of copper and HCT-13 (i.e., HCT-16) was prepared for in vivo administration according to reported procedures for similar compounds and characterized by UV-HPLC and HR-MS. […]
In vivo leukemia models and treatment regimens. […] The leukemic burden was monitored using bioluminescence imaging. […]

The structures appear in SMILES notation.

In the case of `CN(C)C(=S)N/N=C/c1nccc2cc(F)ccc12` (mixture of isomers) [HCT13, (E)-2-((6-Fluoroisoquinolin-1-yl)methylene)-N,N-dimethylhydrazine-1-carbothioamide and (Z)-2-((6-Fluoroisoquinolin-1-yl)methylene)-N,N-dimethylhydrazine-1-carbothioamide], the “basal respiration and maximum respiratory capacity (OCR)” value is “significantly reduced” with MIAPACA2 cells and “decreased significantly” with MIAPACA2 cells (listed as HCT-13). In addition, the “systemic disease burden versus control group (bioluminescence)” value in assay [1] is “significantly lower systemic disease burden”.

Values taken from patent publication US12528774B2, “Thiosemicarbazone compounds and uses thereof” (The Regents of the University of California, priority 2019, dated 2026).
